From paper PMC7887804 (Chemical Research in Toxicology, 2020)
Like-named read-outs stand apart in the source and are kept apart here. Marks after values point to notes of the source that are not given here. Each block holds one molecule with its values, some of them ahead of it.

Columns and labels:
[1] = rats, 100 mg/kg bw [14C]-labelled, parent compound in plasma up to 24 h; cited from earlier work
[2] = In vitro metabolism study; assay type: in vitro ADME, human; conditions: for conversion in incubations with and without the cofactor mix: RLS9 and HLS9, data not shown; for CLint,u: human (H), CLintapp corrected for the fraction unbound in the incubation; for CLintapp (apparent in vitro intrinsic clearance): human liver S9 (H), 1 μM substrate; for measured concentration at t = 0 lower than the added 1 μM: S9 incubation tubes, suggests binding to the plastic walls
[3] = positive hit calls, ToxCast summary data; cited from earlier work
[4] = In vitro metabolism study; assay type: in vitro ADME, rat; conditions: for CLint,u: rat (R), CLintapp corrected for the fraction unbound in the incubation; for CLintapp (apparent in vitro intrinsic clearance): rat liver S9 (R), 1 μM substrate
[5] = cited from earlier work
[6] = test system: human thyroid peroxidase (TPO); conditions: ToxCast, cited from earlier work; for activity in the TPO assay: NCCT_TPO_AUR_dn
thyroid peroxidase (TPO) [7] = experiment: QIVIVE oral equivalent dose related to TPO inhibition; design: species or system human; conditions: humans; for oral equivalent dose related to TPO inhibition: Cmax equal to AC50 in NCCT_TPO_AUR_dn; for margin between human exposure and oral equivalent dose related to TPO inhibition: highest exposure estimates
[8] = cited from earlier work; for pKa: A, acid, ref Tsao [40]; for logP: octanol/water, ref PubChem
[9] = developmental toxicity study; cited from earlier work
[10] = 90 day toxicity study, mainly effects on hematological parameters; cited from earlier work
thyroid peroxidase (TPO) [11] = experiment: QIVIVE oral equivalent dose related to TPO inhibition; design: species or system rat; conditions: rats, Cmax equal to AC50 in NCCT_TPO_AUR_dn
[12] = cited from earlier work; remark: listed apart in the source
[13] = rats ♂, 17.5 mg/kg bw, mean (min–max)
[14] = rats ♀ and ♂, 14 mg/kg bw, mean
[15] = rats ♀ and ♂, 135 mg/kg bw, mean
[16] = rats ♀, 14 mg/kg bw, mean (min–max)
[17] = rats ♀, 135 mg/kg bw, mean (min–max)
[18] = rats ♂, 14 mg/kg bw, mean (min–max)
[19] = rats ♂, 135 mg/kg bw, mean (min–max)
[20] = humans ♀ and ♂, 1.4 mg/kg bw, mean
[21] = humans ♀ and ♂, 14 mg/kg bw, mean
[22] = humans ♀, 1.4 mg/kg bw, mean (min–max)
[23] = humans ♀, 14 mg/kg bw, mean (min–max)
[24] = humans ♂, 1.4 mg/kg bw, mean (min–max)
[25] = humans ♂, 14 mg/kg bw, mean (min–max)

- CLint,u [2]: 121 μL/min/mg of S9 protein
- CLintapp (apparent in vitro intrinsic clearance) [2]: 102 μL/min/mg of S9 protein
- CLint,u [4]: 642 μL/min/mg of S9 protein
- CLintapp (apparent in vitro intrinsic clearance) [4]: 629 μL/min/mg of S9 protein
- faster conversion (CLint) by RLS9 compared with HLS9 ([4]; rat vs human liver S9): 6 fold
Compound: COC(=O)c1ccc(O)cc1 [methylparaben]
- reported in vivo Cmax [1]: No parent compound was detected
- conversion in incubations with and without the cofactor mix [2]: occurs both in the presence and absence of the cofactor mix
- number of ToxCast assays in which the compound is active out of assays tested [3]: 24 out of 886

- conversion in incubations with and without the cofactor mix [2]: to some extent
- measured concentration at t = 0 lower than the added 1 μM [2]: up to 2 fold
- CLint,u [2]: 3999 μL/min/mg of S9 protein
- CLintapp (apparent in vitro intrinsic clearance) [2]: 3119 μL/min/mg of S9 protein
- oral equivalent dose related to TPO inhibition (thyroid peroxidase (TPO) [7]): 99 mg/kg bw
- margin between human exposure and oral equivalent dose related to TPO inhibition (thyroid peroxidase (TPO) [7]): at least 106 fold
- CLint,u [4]: 4695 μL/min/mg of S9 protein
- CLintapp (apparent in vitro intrinsic clearance) [4]: 3662 μL/min/mg of S9 protein
Compound: CCCCCCCCOC(=O)c1cc(O)c(O)c(O)c1 [octyl gallate]
- reported in vivo Cmax ([5]; rats ♀, 17.5 mg/kg bw, mean): ♀ 20 (range NR)^a ng/mL
- reported in vivo AUC [5, 13]: ♂ 3.7 (1.4–7.8) n = 6 ng*hr/mL
- reported in vivo Cmax [5, 13]: ♂ 19 (9–41) n = 6 ng/mL
- activity in the TPO assay [6]: active
- number of ToxCast assays in which the compound is active out of assays tested [3]: 355 out of 982
- pKa [8]: 7.94 (A)
- logP [8]: 4.33

- conversion in incubations with and without the cofactor mix [2]: to some extent
- measured concentration at t = 0 lower than the added 1 μM [2]: up to 2 fold
- CLint,u [2]: 8800 μL/min/mg of S9 protein
- CLintapp (apparent in vitro intrinsic clearance) [2]: 88 μL/min/mg of S9 protein
- oral equivalent dose related to TPO inhibition (thyroid peroxidase (TPO) [7]): 69 mg/kg bw
- margin between human exposure and oral equivalent dose related to TPO inhibition (thyroid peroxidase (TPO) [7]): ≥ 122 fold
- CLint,u [4]: 11 600 μL/min/mg of S9 protein
- CLintapp (apparent in vitro intrinsic clearance) [4]: 232 μL/min/mg of S9 protein
Compound: CCCCCCCCCCCCOC(=O)c1cc(O)c(O)c(O)c1 [dodecyl gallate]
- reported in vivo Cmax ([5]; rats, 10 mg/kg bw oral, blood collected only 10 min after dosing): no detectable plasma concentrations
- activity in the TPO assay [6]: active
- number of ToxCast assays in which the compound is active out of assays tested [3]: 210 out of 441
- pKa [8]: 7.93 (A)
- logP [8]: 6.37

Compound: CCCOC(=O)c1cc(O)c(O)c(O)c1 [propyl gallate]
- reported in vivo AUC [5, 14]: ♀ and ♂ 95 n = 12 ng*hr/mL
- reported in vivo Cmax [5, 14]: ♀ and ♂ 192 n = 12 ng/mL
- reported in vivo AUC [5, 15]: ♀ and ♂ 1624 n = 16 ng*hr/mL
- reported in vivo Cmax [5, 15]: ♀ and ♂ 4753 n = 16 ng/mL
- reported in vivo AUC [5, 16]: ♀ 66 (39–100) n = 6 ng*hr/mL
- reported in vivo Cmax [5, 16]: ♀ 238 (68–462) n = 6 ng/mL
- reported in vivo AUC [5, 17]: ♀ 1164 (321–3451) n = 8 ng*hr/mL
- reported in vivo Cmax [5, 17]: ♀ 4246 (884–12 825) n = 8 ng/mL
- reported in vivo AUC [5, 18]: ♂ 123 (62–217) n = 6 ng*hr/mL
- reported in vivo Cmax [5, 18]: ♂ 145 (67–334) n = 6 ng/mL
- reported in vivo AUC [5, 19]: ♂ 2085 (660–4119) n = 8 ng*hr/mL
- reported in vivo Cmax [5, 19]: ♂ 5260 (1635–11085) n = 8 ng/mL
- NOAEL [9]: 300 mg/kg bw/day
- AC50 ([6]; read-out: AC50 in the NCCT_TPO_AUR_dn assay, TPO inhibition): 580 nM
- CLint,u [2]: 437 μL/min/mg of S9 protein
- CLintapp (apparent in vitro intrinsic clearance) [2]: 428 μL/min/mg of S9 protein
- oral equivalent dose related to TPO inhibition (thyroid peroxidase (TPO) [7]): 6.3 mg/kg bw
- NOAEL [10]: 150 mg/kg bw/day
- oral equivalent dose related to TPO inhibition (thyroid peroxidase (TPO) [11]): 7.9 mg/kg bw
- reported in vivo AUC [12, 20]: ♀ and ♂ 21 n = 11 ng*hr/mL
- reported in vivo Cmax [12, 20]: ♀ and ♂ 13 n = 11 ng/mL
- reported in vivo AUC [12, 21]: ♀ and ♂ 346 n = 10 ng*hr/mL
- reported in vivo Cmax [12, 21]: ♀ and ♂ 152 n = 10 ng/mL
- reported in vivo AUC [12, 22]: ♀ 19 (13-21) n = 4 ng*hr/mL
- reported in vivo Cmax [12, 22]: ♀ 12 (11–14) n = 4 ng/mL
- reported in vivo AUC [12, 23]: ♀ 290 (25–425) n = 5 ng*hr/mL
- reported in vivo Cmax [12, 23]: ♀ 150 (10–240) n = 5 ng/mL
- reported in vivo AUC [12, 24]: ♂ 21 (9.4–42) n = 7 ng*hr/mL
- reported in vivo Cmax [12, 24]: ♂ 14 (4–33) n = 7 ng/mL
- reported in vivo AUC [12, 25]: ♂ 402 (290–587) n = 5 ng*hr/mL
- reported in vivo Cmax [12, 25]: ♂ 155 (84–208) n = 5 ng/mL
- number of ToxCast assays in which the compound is active out of assays tested [3]: 131 out of 888
- CLint,u [4]: 835 μL/min/mg of S9 protein
- CLintapp (apparent in vitro intrinsic clearance) [4]: 818 μL/min/mg of S9 protein
- logP [8]: 1.87
